In US9006450B2 (Boehringer Ingelheim International GmbH, priority 2010, dated 2015):

target: T1, human ACC2 (Homo sapiens, UniProt O00763); experiment: ACC2 assay, spectrophotometric 384 well assay (NADH-linked, coupled lactate dehydrogenase/pyruvate kinase); type: biochemical; conditions: ACC2 assay, hACC2 construct lacking 128 N-terminal amino acids, 25° C., 340 nm; read-out: IC50
T1 construct: made in house; host or cells: insect cells (baculoviral expression system)
Method in brief: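 ADP output tracked via pyruvate kinase/lactate dehydrogenase NADH oxidation, slope at 340 nm over 15 min, 25° C, with 500 μM ATP and 200 μM each acetyl-CoA and NADH. Enzyme: insect-cell-expressed human ACC2, N-terminal 128 residues deleted; pH 7.5 Tris with citrate, KHCO3. IC50 from four-parameter regression versus vehicle and no-acetyl-CoA controls.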

T1 sequence (O00763 129-2458 limits assumed): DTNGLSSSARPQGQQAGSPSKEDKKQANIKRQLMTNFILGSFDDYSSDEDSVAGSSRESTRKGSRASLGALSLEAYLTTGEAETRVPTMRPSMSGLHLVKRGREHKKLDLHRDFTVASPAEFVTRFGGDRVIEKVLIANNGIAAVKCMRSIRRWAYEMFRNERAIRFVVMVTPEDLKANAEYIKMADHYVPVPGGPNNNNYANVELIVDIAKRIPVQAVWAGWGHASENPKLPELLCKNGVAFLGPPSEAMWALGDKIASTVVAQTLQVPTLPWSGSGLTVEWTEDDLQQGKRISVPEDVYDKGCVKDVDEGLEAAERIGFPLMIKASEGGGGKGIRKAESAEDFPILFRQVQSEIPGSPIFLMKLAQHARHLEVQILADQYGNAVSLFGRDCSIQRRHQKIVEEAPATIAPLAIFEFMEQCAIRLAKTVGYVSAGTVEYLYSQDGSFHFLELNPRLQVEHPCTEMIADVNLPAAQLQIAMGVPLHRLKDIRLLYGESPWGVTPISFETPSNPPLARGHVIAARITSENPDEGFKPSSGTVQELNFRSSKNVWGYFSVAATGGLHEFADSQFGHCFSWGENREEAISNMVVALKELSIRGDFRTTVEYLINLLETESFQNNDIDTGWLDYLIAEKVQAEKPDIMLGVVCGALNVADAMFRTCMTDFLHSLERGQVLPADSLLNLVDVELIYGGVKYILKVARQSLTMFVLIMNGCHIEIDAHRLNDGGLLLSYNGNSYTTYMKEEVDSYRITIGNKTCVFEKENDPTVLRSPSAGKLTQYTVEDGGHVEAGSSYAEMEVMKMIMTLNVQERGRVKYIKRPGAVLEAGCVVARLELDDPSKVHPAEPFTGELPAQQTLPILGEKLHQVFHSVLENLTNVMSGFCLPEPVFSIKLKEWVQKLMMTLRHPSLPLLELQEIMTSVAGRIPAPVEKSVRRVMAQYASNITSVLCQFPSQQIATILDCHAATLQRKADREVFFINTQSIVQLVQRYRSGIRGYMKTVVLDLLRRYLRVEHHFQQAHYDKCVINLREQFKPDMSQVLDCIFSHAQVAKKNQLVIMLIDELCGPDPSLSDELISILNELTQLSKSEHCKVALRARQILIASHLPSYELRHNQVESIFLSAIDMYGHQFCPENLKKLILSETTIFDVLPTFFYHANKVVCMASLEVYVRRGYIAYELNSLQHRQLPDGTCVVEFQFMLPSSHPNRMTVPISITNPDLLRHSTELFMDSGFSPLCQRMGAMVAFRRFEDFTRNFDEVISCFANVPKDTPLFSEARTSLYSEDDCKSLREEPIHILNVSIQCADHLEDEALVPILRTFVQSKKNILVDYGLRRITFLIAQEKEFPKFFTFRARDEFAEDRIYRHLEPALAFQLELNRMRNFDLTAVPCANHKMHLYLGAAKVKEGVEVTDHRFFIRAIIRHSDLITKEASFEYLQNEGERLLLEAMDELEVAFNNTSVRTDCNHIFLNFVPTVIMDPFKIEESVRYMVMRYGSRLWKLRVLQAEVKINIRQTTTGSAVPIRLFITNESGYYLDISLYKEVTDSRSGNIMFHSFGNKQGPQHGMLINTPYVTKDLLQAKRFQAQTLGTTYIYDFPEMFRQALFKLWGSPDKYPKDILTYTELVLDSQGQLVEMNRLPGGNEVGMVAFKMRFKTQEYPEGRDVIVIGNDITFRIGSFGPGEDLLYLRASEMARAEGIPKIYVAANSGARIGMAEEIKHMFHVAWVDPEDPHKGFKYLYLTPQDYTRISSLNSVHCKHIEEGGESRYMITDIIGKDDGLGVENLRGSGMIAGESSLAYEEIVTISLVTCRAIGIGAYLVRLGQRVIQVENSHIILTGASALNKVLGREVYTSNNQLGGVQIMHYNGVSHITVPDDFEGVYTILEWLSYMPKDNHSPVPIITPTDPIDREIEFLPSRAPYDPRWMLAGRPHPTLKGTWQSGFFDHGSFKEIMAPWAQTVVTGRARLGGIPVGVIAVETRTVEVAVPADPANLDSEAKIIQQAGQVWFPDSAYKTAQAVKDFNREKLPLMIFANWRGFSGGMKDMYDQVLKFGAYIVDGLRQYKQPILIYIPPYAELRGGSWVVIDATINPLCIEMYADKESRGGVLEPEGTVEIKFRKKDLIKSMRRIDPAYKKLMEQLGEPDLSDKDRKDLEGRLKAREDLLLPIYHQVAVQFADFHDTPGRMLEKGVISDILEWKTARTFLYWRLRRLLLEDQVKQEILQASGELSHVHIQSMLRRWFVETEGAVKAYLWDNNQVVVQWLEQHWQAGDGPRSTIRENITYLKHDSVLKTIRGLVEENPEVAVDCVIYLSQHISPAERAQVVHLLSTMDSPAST

| IC50 | SMILES |
| --- | --- |
| 170 nM | CCCOc1ccc(N2CCC(c3ccc([C@H](C)NC(=O)N(C)C)cc3)CC2)nc1 [Example 1.178] |
| 2800 nM | CCOc1ccc(N2CCC(c3ccc([C@H](C)NC(=O)c4cccnc4)cc3)CC2)cc1 [Example 6.31] |
| 3200 nM | CC(=O)N[C@@H](C)c1ccc(C2CCN(c3cnccc3C)CC2)cc1 [Example 15.10] |
| 320 nM | CCOc1ccc(N2CCC(c3ccc([C@H](C)NC(C)=O)cc3)CC2)cn1 [Example 1.4] |
| 380 nM | C[C@H](NC(=O)N(C)C)c1ccc(C2CCN(c3ncc(-c4ccc5c(c4)CCO5)cn3)CC2)cc1 [Example 10.99] |
| 930 nM | CCOc1ncc(N2CCC(c3ccc([C@H](C)NC(C)=O)cc3)CC2)c(OC)n1 [Example 16.10] |
| 750 nM | CC(=O)N[C@@H](C)c1ccc(C2CCN(c3ccnc(OCc4ccccc4F)c3)CC2)cc1 [Example 19.31] |
| 1600 nM | CC(=O)N[C@@H](C)c1ccc(C2CCN(c3cc(C(F)(F)F)ncn3)CC2)cc1 [Example 4.6] |
| 15800 nM | CC(=O)N[C@@H](C)c1ccc(C2CCN(c3ncc(C(=O)NCCC(=O)N(C)C)cn3)CC2)cc1 [Example 18.66] |
| 4100 nM | CCOc1cccc(-c2cc(N3CCC(c4ccc([C@H](C)NC(C)=O)cc4)CC3)ncn2)c1 [Example 22.7] |
| 3700 nM | CCOc1ccc(N2CCC(c3ccc([C@H](C)NC(=O)N(C)CC4CC4)cc3)CC2)cc1 [Example 14.65] |
| 1300 nM | CC(=O)N[C@@H](C)c1ccc(C2CCN(c3ccc(O[C@@H]4CCOC4)cc3F)CC2)cc1 [Example 1.63] |
| 460 nM | CC(=O)N[C@@H](C)c1ccc(C2CCN(c3ncc(-c4cc5ccc(C)cc5[nH]4)cn3)CC2)cc1 [Example 10.116] |
| 9100 nM | COCc1nc(N2CCC(c3ccc([C@H](C)NC(C)=O)cc3)CC2)no1 [Example 26.4] |
| 120 nM | CCCOc1ccc(N2CCC(c3ccc([C@H](C)NC(C)=O)cc3)CC2)c(Cl)c1 [Example 1.33] |
| 130 nM | CC(=O)N[C@@H](C)c1ccc(C2CCN(c3ccnc(O[C@@H]4CCOC4)c3)CC2)cc1 [Example 19.20] |
| 3100 nM | CCCNc1nccc(N2CCC(c3ccc([C@H](C)NC(C)=O)cc3)CC2)n1 [Example 11.41] |
| 150 nM | CC(=O)N[C@@H](C)c1ccc(C2CCN(c3cccc(OC(C)c4ccccc4)c3)CC2)cc1 (stereo partly shown) [Example 9.18] |
| 9300 nM | CC(=O)N[C@@H](C)c1ccc(C2CCN(c3ncc(C(=O)N(C)Cc4cccnc4)cn3)CC2)cc1 [Example 18.31] |
| 260 nM | COc1ccc(N2CCC(c3ccc([C@H](C)NC(C)=O)cc3)CC2)c(C#N)c1 [Example 1.34] |
| 1300 nM | CC(C)Oc1ncc(F)c(N2CCC(c3ccc([C@H](C)NC(=O)C4CC4)cc3)CC2)n1 [Example 11.129] |
| 210 nM | C[C@H](NC(=O)N(C)C)c1ccc(C2CCN(c3ccc(OCC4CC4)cc3)CC2)cc1 [Example 1.24] |
| 120 nM | CCC(CC)Oc1ccc(N2CCC(c3ccc([C@H](C)NC(C)=O)cc3)CC2)cc1 [Example 9.33] |
| 1200 nM | CC(=O)N[C@@H](C)c1ccc(C2CCN(c3ncc(C(=O)N(C)c4ccccc4)cn3)CC2)cc1 [Example 18.89] |
| 3900 nM | CCCOc1ccc(N2CCC(c3ccc(C(CC)NC(C)=O)cc3)CC2)c(OC)c1 (stereo not shown) [Example 15.20] |

| IC50 | SMILES |
| --- | --- |
| 2600 nM | CC(=O)N[C@@H](C)c1ccc(C2CCN(c3ncc(C(=O)NCc4cc[nH]n4)cn3)CC2)cc1 [Example 18.21] |
| 5100 nM | COc1ccccc1NC(=O)c1cnc(N2CCC(c3ccc([C@H](C)NC(C)=O)cc3)CC2)nc1 [Example 18.16] |
| 180 nM | CCCOc1cc(N2CCC(c3ccc([C@H](C)NC(C)=O)cc3)CC2)ncn1 [Example 11.1] |
| 5000 nM | CC(=O)N[C@@H](C)c1ccc(C2CCN(c3cc(C)ccn3)CC2)cc1 [Example 5.41] |
| 150 nM | CC(=O)N[C@@H](C)c1ccc(C2CCN(c3ccc(OCC(C)C)c(F)c3)CC2)cc1 [Example 8.28] |
| 2100 nM | CCCCOc1ccc(N2CCC(c3ccc([C@H](C)NC(C)=O)cc3)CC2)cc1OC [Example 8.43] |
| 100 nM | CCc1ccc(-c2cnc(N3CCC(c4ccc([C@H](C)NC(C)=O)cc4)CC3)nc2)cc1 [Example 10.6] |
| 830 nM | CCOc1ccc(N2CCC(c3ccc([C@H](C)NC(C)=O)cc3)CC2)cc1C [Example 8.15] |
| 15100 nM | CC(=O)N[C@@H](C)c1ccc(C2CCN(c3ncc(C(=O)N4CCN(C(C)=O)CC4)cn3)CC2)cc1 [Example 18.53] |
| 6000 nM | COCCOc1ccc(N2CCC(c3ccc([C@H](C)NC(C)=O)cc3)CC2)cc1C [Example 8.19] |
| 2600 nM | CC(=O)N[C@@H](C)c1ccc(C2CCN(c3ccc(C#N)cn3)CC2)cc1 [Example 4.5] |
| 3100 nM | CC(=O)N[C@@H](C)c1ccc(C2CCN(c3ncc(C(=O)N4Cc5cccnc5C4)cn3)CC2)cc1 [Example 18.38] |
| 70 nM | CC(=O)N[C@@H](C)c1ccc(C2CCN(c3ncc(-c4cnc5ccccc5c4)cn3)CC2)cc1 [Example 10.21] |
| 580 nM | CC(=O)N[C@@H](C)c1ccc(C2CCN(c3cc(N(C)C(C)C)ncn3)CC2)cc1 [Example 11.48] |
| 230 nM | CC(=O)N[C@@H](C)c1ccc(C2CCN(c3ccnc(OC4CCC4)n3)CC2)cc1 [Example 11.110] |
| 910 nM | CC(=O)N[C@@H](C)c1ccc(C2CCN(c3ccc(OCC4CCCO4)cc3)CC2)cc1 (stereo partly shown) [Example 1.167] |
| 210 nM | COc1ccc(-c2cnc(N3CCC(c4ccc([C@H](C)NC(C)=O)cc4)CC3)nc2)c(C(F)(F)F)c1 [Example 10.36] |
| 7400 nM | CC(=O)N[C@@H](C)c1ccc(C2CCN(c3ccc4nc(C)n(C)c4c3)CC2)cc1 [Example 1.70] |
| 90 nM | CCCOc1ccc(N2CCC(c3ccc([C@H](C)NC(C)=O)cc3)CC2)c(C)c1 [Example 1.32] |
| 7200 nM | CCOc1ccc(N2CCC(c3ccc([C@H](C)NC(=O)CC(=O)O)cc3)CC2)cc1 [Example 32.1, (S)-3-(1-(4-(1-(4-Ethoxyphenyl)piperidin-4-yl)phenyl)ethylamino)-3-oxopropanoic Acid] |
| 150 nM | CC(=O)N[C@@H](C)c1ccc(C2CCN(c3ncc(-c4cccc5cc[nH]c45)cn3)CC2)cc1 [Example 10.118] |
| 220 nM | COCCCOc1ccc(N2CCC(c3ccc([C@H](C)NC(C)=O)cc3)CC2)cc1 [Example 9.26] |
| 3700 nM | CC(=O)N[C@@H](C)c1ccc(C2CCN(c3cc(NCc4ccccc4)ncn3)CC2)cc1 [Example 11.55] |
| 490 nM | CC(=O)N[C@@H](C)c1ccc(C2CCN(c3ccnc(OC4CCCC4)n3)CC2)cc1 [Example 11.8] |
| 1700 nM | CC(=O)N[C@@H](C)c1ccc(C2CCN(c3ncc(C(=O)NCC4CC4)cn3)CC2)cc1 [Example 18.77] |

| IC50 | SMILES |
| --- | --- |
| 270 nM | CC(=O)N[C@@H](C)c1ccc(C2CCN(c3ccnc(OCc4cccc(F)c4)c3)CC2)cc1 [Example 19.32] |
| 370 nM | CC(=O)N[C@@H](C)c1ccc(C2CCN(c3ncc(-c4cccc5c4OCC5)cn3)CC2)cc1 [Example 10.92] |
| 990 nM | CCCOc1ccc(N2CCC(c3ccc(CC(C)NC(C)=O)cc3)CC2)cc1 (stereo not shown) [Example 2.3] |
| 320 nM | CNc1nc(N2CCC(c3ccc([C@H](C)NC(C)=O)cc3)CC2)ncc1-c1ccccc1 [Example 21.3, (S)—N-(1-{4-[1-(4-Methylamino-5-phenyl-pyrimidin-2-yl)-piperidin-4-yl]-phenyl}-ethyl)-acetamide] |
| 1200 nM | CCOc1ccc(-c2nccc(N3CCC(c4ccc([C@H](C)NC(C)=O)cc4)CC3)n2)cc1 [Example 22.6] |
| 420 nM | CCCOc1ccnc(N2CCC(c3ccc([C@H](C)NC(C)=O)cc3)CC2)c1 [Example 5.48] |
| 390 nM | CCCOc1cccc(N2CCC(c3ccc([C@H](C)NC(C)=O)cc3)CC2)c1 [Example 1.89] |
| 360 nM | COc1ccc(N2CCC(c3ccc([C@H](C)NC(C)=O)cc3)CC2)c(F)c1 [Example 1.96] |
| 260 nM | CC(=O)N[C@@H](C)c1ccc(C2CCN(c3ncc(C(=O)Nc4cccc(C)c4)cn3)CC2)cc1 [Example 18.8] |
| 370 nM | CC(=O)N[C@@H](C)c1ccc(C2CCN(c3cc(OCc4ccccc4)ncn3)CC2)cc1 [Example 11.24] |
| 2400 nM | CC(=O)N[C@@H](C)c1ccc(C2CCN(c3cc(NCCC4CC4)ncn3)CC2)cc1 [Example 11.107] |
| 2200 nM | CC(=O)N[C@@H](C)c1ccc(C2CCN(c3ncc(C(=O)NCc4ccccc4)cn3)CC2)cc1 [Example 18.92] |
| 300 nM | CC(=O)N[C@@H](C)c1ccc(C2CCN(c3ncc(-c4ccc(Cl)cc4)cn3)CC2)cc1 [Example 4.37] |
| 230 nM | COc1ccc(N2CCC(c3ccc([C@H](C)NC(C)=O)cc3)CC2)cc1 [Example 1.30] |
| 720 nM | COc1cc(C)c(N2CCC(c3ccc([C@H](C)NC(C)=O)cc3)CC2)cn1 [Example 1.56] |
| 280 nM | CCOc1ccc(N2CCC(c3ccc([C@H](C)NC(=O)c4ccns4)cc3)CC2)cc1 [Example 6.26] |
| 6900 nM | COc1ccc2cc(-c3cnc(N4CCC(c5ccc([C@H](C)NC(C)=O)cc5)CC4)nc3)ccc2c1 [Example 10.40] |
| 1300 nM | CCOc1ccc(N2CCC(c3ccc([C@H](C)NC(=O)c4ccno4)cc3)CC2)cc1 [Example 6.12] |
| 520 nM | CC(=O)N[C@@H](C)c1ccc(C2CCN(c3ccnc(OCc4cccnc4)c3)CC2)cc1 [Example 19.34] |
| 3100 nM | COC1CN(C(=O)c2cnc(N3CCC(c4ccc([C@H](C)NC(C)=O)cc4)CC3)nc2)C1 [Example 18.23] |
| 410 nM | CC(=O)N[C@@H](C)c1ccc(C2CCN(c3ccnc(Cl)c3C)CC2)cc1 [Example 5.40] |
| 1300 nM | CC(=O)N[C@@H](C)c1ccc(C2CCN(c3ncc(-c4ccc(OC(C)C)c(C)c4)cn3)CC2)cc1 [Example 10.126] |
| 1200 nM | CC(=O)N[C@@H](C)c1ccc(C2CCN(c3ncc(-c4cccn4C)cn3)CC2)cc1 [Example 10.72] |
